For the assay, the target named is recombinant human ASK1 protein (Homo sapiens (Human), UniProt Q99683). Briefly: ASK1 kinase activity inhibition assay (radiometric 33P incorporation into MBP). The format is biochemical. The settings on record: Table 3; 20 μM MBP, 10 μM 33P-ATP. On the procedure: ASK1 Kinase Activity Inhibition Assay
recombinant human ASK1 protein, sequence (Q99683 whole entry): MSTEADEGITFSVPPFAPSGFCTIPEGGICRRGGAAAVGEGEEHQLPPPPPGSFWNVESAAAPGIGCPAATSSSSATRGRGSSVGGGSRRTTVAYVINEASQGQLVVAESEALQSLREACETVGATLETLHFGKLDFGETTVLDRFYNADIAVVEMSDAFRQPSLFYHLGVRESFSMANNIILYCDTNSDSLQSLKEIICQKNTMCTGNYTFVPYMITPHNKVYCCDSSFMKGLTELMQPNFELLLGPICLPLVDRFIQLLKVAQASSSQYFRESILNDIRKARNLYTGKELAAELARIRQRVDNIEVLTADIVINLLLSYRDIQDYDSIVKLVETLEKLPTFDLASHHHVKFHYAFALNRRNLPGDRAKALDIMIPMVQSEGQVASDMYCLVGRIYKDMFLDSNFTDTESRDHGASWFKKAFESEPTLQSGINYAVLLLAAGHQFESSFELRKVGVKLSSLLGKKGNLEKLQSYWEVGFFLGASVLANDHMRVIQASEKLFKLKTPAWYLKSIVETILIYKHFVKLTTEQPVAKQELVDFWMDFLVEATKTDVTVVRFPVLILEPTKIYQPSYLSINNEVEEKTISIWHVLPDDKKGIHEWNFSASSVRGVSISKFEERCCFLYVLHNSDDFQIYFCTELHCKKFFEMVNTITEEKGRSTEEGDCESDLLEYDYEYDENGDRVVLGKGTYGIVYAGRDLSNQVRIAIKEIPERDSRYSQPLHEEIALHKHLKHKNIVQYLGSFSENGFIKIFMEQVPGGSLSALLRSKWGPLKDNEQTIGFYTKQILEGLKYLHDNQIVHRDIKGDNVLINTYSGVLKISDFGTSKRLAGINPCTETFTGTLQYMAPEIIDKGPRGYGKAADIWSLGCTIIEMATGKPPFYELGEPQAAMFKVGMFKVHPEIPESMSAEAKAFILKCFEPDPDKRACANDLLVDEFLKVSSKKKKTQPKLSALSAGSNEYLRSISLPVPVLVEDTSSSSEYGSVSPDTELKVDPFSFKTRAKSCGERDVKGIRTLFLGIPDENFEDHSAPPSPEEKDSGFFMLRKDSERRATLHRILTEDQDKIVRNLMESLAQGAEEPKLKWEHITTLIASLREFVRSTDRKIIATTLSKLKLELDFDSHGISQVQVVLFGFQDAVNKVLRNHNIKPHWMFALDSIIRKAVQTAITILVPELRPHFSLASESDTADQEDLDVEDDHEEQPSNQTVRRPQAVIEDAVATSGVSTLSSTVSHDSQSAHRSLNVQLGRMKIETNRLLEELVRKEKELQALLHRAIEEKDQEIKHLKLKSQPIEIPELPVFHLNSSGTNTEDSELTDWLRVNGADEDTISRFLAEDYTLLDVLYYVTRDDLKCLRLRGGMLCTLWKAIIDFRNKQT
Inhibition of ASK1 kinase activity was determined radiometrically using 33P substrate incorporation (Reaction Biology Corp., Malvern, Pa.). Briefly, recombinant human ASK1 protein, 20 μM substrate (myelin basic protein (MBP)), and compound (diluted from DMSO stock to give 1% final DMSO) were incubated in Base Reaction buffer (20 mM Hepes (pH 7.5), 10 mM MgCl2, 1 mM EGTA, 0.02% Brij35, 0.02 mg/mL BSA, 0.1 mM Na3VO4, 2 mM DTT, 1% DMSO) at room temperature for 20 minutes. The reaction was initiated by addition of 10 μM 33P-ATP (specific activity […]). The reaction was then allowed to proceed for 2 hours at room temperature. Upon reaction termination, the mixture was spotted on P81 exchange paper and kinase activity by incorporation of 33P into MBP substrate was detected by filter-binding method.
As to `CC(C)n1cnnc1-c1cccc(N2Cc3ccc(-c4ccc(C(=O)O)cc4CO)cc3C2=O)n1` [Compound 58, 3-(Hydroxymethyl)-4-(2-(6-(4-isopropyl-4H-1,2,4-triazol-3-yl)pyridin-2-yl)-3-oxoisoindolin-5-yl)benzoic Acid], the IC50 (usually the concentration needed to halve the response being measured) was 5.1 nM.
Consider `CC(C)n1cnnc1-c1cccc(N2Cc3ccc(-c4cnc(N)c(C(=O)O)c4)cc3C2=O)n1` [Compound 117, 2-Amino-5-(2-(6-(4-isopropyl-4H-1,2,4-triazol-3-yl)pyridin-2-yl)-3-oxoisoindolin-5-yl) Nicotinic Acid], for which the IC50 turned out to be 1.9 nM.
For the compound `CC(C)n1cnnc1-c1cccc(N2Cc3ccc(N4CCC(CC(=O)O)CC4)cc3C2=O)n1` [Compound 129, 2-(1-(2-(6-(4-Isopropyl-4H-1,2,4-triazol-3-yl)pyridin-2-yl)-3-oxoisoindolin-5-yl)piperidin-4-yl)acetic Acid], the IC50 stood at 6.6 nM.
Turning to `CC(C)n1cnnc1-c1cccc(N2Cc3ccc(-c4cccc(CCC(=O)O)c4)cc3C2=O)n1` [Compound 107, 3-(3-(2-(6-(4-Isopropyl-4H-1,2,4-triazol-3-yl)pyridin-2-yl)-3-oxoisoindolin-5-yl)phenyl) Propanoic Acid], the IC50 was 5.2 nM.
For `CC(C)n1cnnc1-c1cccc(N2Cc3ccc(-c4nccc(C(=O)O)c4F)cc3C2=O)n1` [Compound 113, 3-Fluoro-2-(2-(6-(4-isopropyl-4H-1,2,4-triazol-3-yl) 103yridine-2-yl)-3-oxoisoindolin-5-yl) Isonicotinic Acid] the value was 1.6 nM; for `COc1cc(-c2ccc3c(c2)C(=O)N(c2cccc(-c4nncn4C(C)C)n2)C3)ccc1C(=O)O` [Compound 75, 4-(2-(6-(4-Isopropyl-4H-1,2,4-triazol-3-yl)pyridin-2-yl)-3-oxoisoindolin-5-yl)-2-methoxybenzoic Acid], 5.6 nM.
For `CC(C)n1cnnc1-c1cccc(N2Cc3ccc(N4CCCC(C(=O)O)C4)cc3C2=O)n1` (stereo not shown) [Compound 28, 1-(2-(6-(4-Isopropyl-4H-1,2,4-triazol-3-yl)pyridin-2-yl)-3-oxoisoindolin-5-yl)piperidine-3-carboxylic Acid] the value was 11.2 nM; for `CC(C)n1cnnc1-c1cccc(N2Cc3ccc(-c4ccc(C(=O)O)c(S(C)(=O)=O)c4)cc3C2=O)n1` [Compound 77, 4-(2-(6-(4-Isopropyl-4H-1,2,4-triazol-3-yl)pyridin-2-yl)-3-oxoisoindolin-5-yl)-2-(methylsulfonyl)benzoic Acid], 2.8 nM.
In the case of `CC(C)n1cnnc1-c1cccc(N2Cc3ccc(-c4ccc(-c5nnn[nH]5)cc4)cc3C2=O)n1` [Compound 91, 6-(4-(2H-Tetrazol-5-yl)phenyl)-2-(6-(4-isopropyl-4H-1,2,4-triazol-3-yl)pyridin-2-yl)isoindolin-1-one], the IC50 amounted to 7.9 nM.
Consider `COc1c(C)cc(-c2ccc3c(c2)C(=O)N(c2cccc(-c4nncn4C(C)C)n2)C3)cc1C(=O)O` [Compound 80, 5-(2-(6-(4-Isopropyl-4H-1,2,4-triazol-3-yl)pyridin-2-yl)-3-oxoisoindolin-5-yl)-2-methoxy-3-methylbenzoic Acid], for which the IC50 was found to be 5.2 nM.
As for `CC(C)n1cnnc1-c1cccc(N2Cc3ccc(-c4cccc(C(=O)O)c4O)cc3C2=O)n1` [Compound 95, 2-Hydroxy-3-(2-(6-(4-isopropyl-4H-1,2,4-triazol-3-yl)pyridin-2-yl)-3-oxoisoindolin-5-yl) benzoic Acid], the figure is 3.4 nM; as for `O=C(O)c1ccc(-c2ccc3c(c2)C(=O)N(c2cccc(-c4nncn4C4CC4)n2)C3)cc1` [Compound 71, 4-(2-(6-(4-Cyclopropyl-4H-1,2,4-triazol-3-yl)pyridin-2-yl)-3-oxoisoindolin-5-yl)benzoic Acid], 4.3 nM.
On to `CC(C(=O)O)c1ccc(-c2ccc3c(c2)C(=O)N(c2cccc(-c4nncn4C(C)C)n2)C3)cc1` (stereo not shown) [Compound 85, 2-(4-(2-(6-(4-Isopropyl-4H-1,2,4-triazol-3-yl)pyridin-2-yl)-3-oxoisoindolin-5-yl)phenyl)propanoic Acid], for which the IC50 came to 3.6 nM.
Regarding `O=C1c2cc(-c3cccc(-c4nn[nH]n4)c3)ccc2CN1c1cccc(-c2nncn2C2CC2)n1` [Compound 110, 6-(3-(2H-Tetrazol-5-yl)phenyl)-2-(6-(4-cyclopropyl-4H-1,2,4-triazol-3-yl)pyridin-2-yl)isoindolin-1-one], the IC50 was found to be 5.44 nM.
For the compound `O=C1c2cc(-c3ccc(-c4nnn[nH]4)cc3)ccc2CN1c1cccc(-c2nncn2C2CC2)n1` [Compound 92, 6-(4-(2H-Tetrazol-5-yl)phenyl)-2-(6-(4-cyclopropyl-4H-1,2,4-triazol-3-yl)pyridin-2-yl)isoindolin-1-one], the IC50 was 5.52 nM.
As to `CC(C)n1cnnc1-c1cccc(N2Cc3ccc(-c4c(F)cccc4C(=O)O)cc3C2=O)n1` [Compound 70, 3-Fluoro-2-(2-(6-(4-isopropyl-4H-1,2,4-triazol-3-yl)pyridin-2-yl)-3-oxoisoindolin-5-yl)benzoic Acid], the IC50 turned out to be 160 nM.
Take `CC(C)n1cnnc1-c1cccc(N2Cc3ccc(-c4cc(F)c(C(=O)O)c(F)c4)cc3C2=O)n1` [Compound 78, 2,6-Difluoro-4-(2-(6-(4-isopropyl-4H-1,2,4-triazol-3-yl)pyridin-2-yl)-3-oxoisoindolin-5-yl) Benzoic Acid]: the IC50 was 4.6 nM.
Regarding `CC(C)n1cnnc1-c1cccc(N2Cc3ccc(-c4ccc(O)c(C(=O)O)c4)cc3C2=O)n1` [Compound 64, 2-Hydroxy-5-(2-(6-(4-isopropyl-4H-1,2,4-triazol-3-yl)pyridin-2-yl)-3-oxoisoindolin-5-yl)benzoic Acid], the IC50 was determined as 7 nM.
`Cc1cc(C(=O)O)c(C#N)c(-c2ccc3c(c2)C(=O)N(c2cccc(-c4nncn4C(C)C)n2)C3)n1` [Compound 118, 3-Cyano-2-(2-(6-(4-isopropyl-4H-1,2,4-triazol-3-yl)pyridin-2-yl)-3-oxoisoindolin-5-yl)-6-methylisonicotinic Acid]: the IC50 is 67.1 nM.
For `CC(C)n1cnnc1-c1cccc(N2Cc3ccc([C@H]4CC[C@H](C(=O)O)CC4)cc3C2=O)n1` [Compound 126, trans-4-(2-(6-(4-Isopropyl-4H-1,2,4-triazol-3-yl)pyridin-2-yl)-3-oxoisoindolin-5-yl)cyclohexane-1-carboxylic acid] the value was 13.4 nM; for `CCc1sc(C(=O)O)cc1-c1ccc2c(c1)C(=O)N(c1cccc(-c3nncn3C(C)C)n1)C2` [Compound 62, 5-Ethyl-4-(2-(6-(4-isopropyl-4H-1,2,4-triazol-3-yl)pyridin-2-yl)-3-oxoisoindolin-5-yl)thiophene-2-carboxylic Acid], 6.8 nM; for `COC(=O)C(C)(C)c1cccc(-c2ccc3c(c2)C(=O)N(c2cccc(-c4nncn4C4CC4)n2)C3)c1` [Compound 104, Methyl 2-(3-(2-(6-(4-cyclopropyl-4H-1,2,4-triazol-3-yl)pyridin-2-yl)-3-oxoisoindolin-5-yl)phenyl)-2-methylpropanoate], 46.6 nM.
As for `COC(=O)c1cccc(-c2ccc3c(c2)C(=O)N(c2cccc(-c4nncn4C(C)C)n2)C3)c1` [Compound 99, Methyl 3-(2-(6-(4-isopropyl-4H-1,2,4-triazol-3-yl)pyridin-2-yl)-3-oxoisoindolin-5-yl)benzoate], the IC50 was 6.37 nM.
In the case of “6-(2-(6-(4-Isopropyl-4H-1,2,4-triazol-3-yl)pyridin-2-yl)-3-oxoisoindolin-5-yl)pyridazine-4-carboxylic Acid [Compound 119]”, the IC50 worked out at 5.2 nM.
For `CC(C)n1cnnc1-c1cccc(N2Cc3ccc(-c4cccc(C5(C(=O)O)CC5)c4)cc3C2=O)n1` [Compound 105, 1-(3-(2-(6-(4-Isopropyl-4H-1,2,4-triazol-3-yl)pyridin-2-yl)-3-oxoisoindolin-5-yl)phenyl)cyclopropane-1-carboxylic Acid], the IC50 turned out to be 7.3 nM.
In the case of `COC(=O)c1ccc(-c2ccc3c(c2)C(=O)N(c2cccc(-c4nncn4C(C)C)n2)C3)cc1` [Compound 81, Methyl 4-(2-(6-(4-isopropyl-4H-1,2,4-triazol-3-yl)pyridin-2-yl)-3-oxoisoindolin-5-yl)benzoate], the IC50 was 14.9 nM.
Turning to `Cc1cc(C(=O)O)cc(-c2ccc3c(c2)C(=O)N(c2cccc(-c4nncn4C(C)C)n2)C3)n1` [Compound 115, 2-(2-(6-(4-Isopropyl-4H-1,2,4-triazol-3-yl)pyridin-2-yl)-3-oxoisoindolin-5-yl)-6-methylisonicotinic Acid], the half-maximal inhibitory concentration (IC50) was determined as 6.5 nM.
As for `Cc1ccc(-c2ccc3c(c2)C(=O)N(c2cccc(-c4nncn4C(C)C)n2)C3)cc1C(=O)O` [Compound 9, 5-(2-(6-(4-Isopropyl-4H-1,2,4-triazol-3-yl)pyridin-2-yl)-3-oxoisoindolin-5-yl)-2-methylbenzoic acid], the figure is 5.6 nM; as for `Cc1cc(C(=O)O)ccc1-c1ccc2c(c1)C(=O)N(c1cccc(-c3nncn3C(C)C)n1)C2` [Compound 74, 4-(2-(6-(4-Isopropyl-4H-1,2,4-triazol-3-yl)pyridin-2-yl)-3-oxoisoindolin-5-yl)-3-methylbenzoic Acid], 5.7 nM.
Turning to `CC(C)n1cnnc1-c1cccc(N2Cc3ccc(-c4cc(-c5nn[nH]n5)ccc4F)cc3C2=O)n1` [Compound 111, 6-(2-Fluoro-5-(2H-tetrazol-5-yl)phenyl)-2-(6-(4-isopropyl-4H-1,2,4-triazol-3-yl)pyridin-2-yl)isoindolin-1-one], the IC50 amounted to 6.4 nM.
As for `CC(C)(C(=O)O)c1cccc(-c2ccc3c(c2)C(=O)N(c2cccc(-c4nncn4C4CC4)n2)C3)c1` [Compound 103, 2-(3-(2-(6-(4-Cyclopropyl-4H-1,2,4-triazol-3-yl)pyridin-2-yl)-3-oxoisoindolin-5-yl)phenyl)-2-methylpropanoic Acid], the IC50 came to 12.5 nM.

The values are drawn from US10654833B2, “ASK1 isoindolin-1-one inhibitors and methods of use thereof” (Hepatikos Therapeutics, LLC, priority 2018, dated 2020).
